Results: patent US20260226128A1, “Capped Peptides and Methods for Using the Same” (The Board of Trustees of the Leland Stanford Junior …, priority 2023, published 2026)
Where a SMILES comes first, the peptide text is derived from it.

Columns and labels:
human TACR1 = target: T1, human TACR1 (Homo sapiens, UniProt P25103); assay: human TACR1-beta arrestin recruitment assay (PathHunter beta-arrestin CHO-K1 cells); type: cell-based; details: human TACR1-transfected PathHunter beta-arrestin CHO-K1 cells
T1 construct: host or cells: PathHunter beta-arrestin CHO-K1 cells
T1 sequence (P25103 whole entry): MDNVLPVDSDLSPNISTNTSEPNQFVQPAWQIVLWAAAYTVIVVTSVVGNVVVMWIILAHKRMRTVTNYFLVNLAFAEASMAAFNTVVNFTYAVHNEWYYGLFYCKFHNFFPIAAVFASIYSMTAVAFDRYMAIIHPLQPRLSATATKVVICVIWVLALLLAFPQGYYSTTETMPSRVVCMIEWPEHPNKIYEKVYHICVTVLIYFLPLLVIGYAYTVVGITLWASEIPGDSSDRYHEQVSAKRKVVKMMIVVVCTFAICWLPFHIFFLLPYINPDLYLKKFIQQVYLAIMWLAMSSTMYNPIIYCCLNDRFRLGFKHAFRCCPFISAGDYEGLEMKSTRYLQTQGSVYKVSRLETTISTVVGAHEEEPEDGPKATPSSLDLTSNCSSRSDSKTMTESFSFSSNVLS
Source text: (§1) FIG. 4. […] (A) Schematic and annotation of the primary amino acid sequence for full-length mouse TAC1 preproprotein and its cleavage products. […] For (B), N=2 per concentration; for (C), N=3 per condition. For (B,C), data are shown as means±SEM. * P<0.05, ** P<0.01 versus control by Student's t-test.

diet induced obese mice [1] = assay: Oxygen consumption after single CAP-TAC1 injection, metabolic chambers; type: in vivo, mouse; details: single injection at T=0, 10 mg/kg (FIG. 11 legend), over 24 hours
Experimental: FIG. 11. CAP-TAC1 acutely induces oxygen consumption over 24 hours. Oxygen consumption (VO2) of diet induced obese mice injected with a single injection at T=0 vehicle (18:1:1 Saline: DMSO: Kolliphor EL) or 10 mg/kg CAP-TAC1 (pGlu-FFGLM-NH2). (N=4 for vehicle and CAP-TAC1 groups, error bars are SEM, and P values calculated with two-way ANOVA.)
Metabolic chamber studies. For acute energy expenditure studies, food intake, RER, movement, VO2, and VCO2 were collected with CLAMS Oxymax Metabolic Cages. Mice were placed individual metabolic cages for 24 hours prior to experiment. For CAP-GDF15 experiments, mice were injected with either vehicle, 50 mg/kg CAP-GDF15, or 50 mg/kg scrambled CAP-GDF15 at 5 μm at T=0. For CAP-TAC1 experiments, mice were injected with either vehicle (18:1:1 Saline: DMSO: Kolliphor EL) or […] CAP-TAC1 (pGlu-FFGLM-NH2) at ~12 μm (T=0). Food intake, RER, movement, VO2, and VCO2 were collected every 7 minutes for […] immediately after injection. All experiments were done with 3-5 month old DIO mice (Jackson, stock 380050), fed high fat diet ad libitum.

[2] = Half-life of peptides incubated in mouse plasma, levels by LC-MS
Experimental: as §1
Half-life calculations of CAP-TAC1 in plasma. 10 µM of either synthetic CAP-TAC1 or SP was incubated with 100 μl of mouse plasma. Samples were incubated at 37° C. for 0, 10, 30, 60, or 90 minutes (N=3 for each time point). At the indicated time point, 1 μl of HALT protease inhibitor was immediately added, and plasma was boiled and prepared using the peptidomics workflow described above. […] Half-lives were calculated using an exponential decay fit.

diet induced obese mice [3] = assay: Daily CAP-TAC1 treatment of diet induced obese mice with pair fed group; type: in vivo, mouse; details: 10 mg/kg daily
Experimental: FIG. 10. […] (A) Body weight change and (B) food intake of diet induced obese mice injected with vehicle (18:1:1 Saline: DMSO: Kolliphor EL), 10 mg/kg CAP-TAC1 (pGlu-FFGLM-NH2), and vehicle pair fed to CAP-TAC1 group. (N=6 for vehicle, N=7 for CAP-TAC1 and pair fed groups, error bars are SEM, and P values calculated with two-way ANOVA.)
CAP-TAC1 treatments in mice. Injected diet induced obese (on high fat diet, 4 months old, male, C57BL/6J, Jackson cat #380050) mice daily with vehicle (18:1:1 Saline: DMSO: Kolliphor EL) or 10 mg/kg CAP-TAC1 (pGlu-FFGLM-NH2). The pair fed group was started one day later and fed the same food the CAP-TAC1 mice ate daily. Mice were singly housed and injected daily ~12 μm. Mouse body weights and food weights were measured at the same time. (N=6 for vehicle, N=7 for CAP-TAC1 and pair fed groups.)

diet-induced obese mice [4] = assay: Three-day daily dosing in diet-induced obese mice, food intake and body weight; type: in vivo, mouse; details: 50 mg/kg/day, IP, 3 days, versus vehicle control
Experimental: (§2) FIG. 5. Functional studies of CAP-GDF15 in feeding and energy balance in mice. […] (B) Representative extracted ion chromatogram and (C) mirror tandem fragmentation spectra of CAP-GDF15 (pGlu-[…]-NH2; +2 ion m/z=682.4) and the endogenous plasma peak. (D) Food intake, (E) respiratory exchange ratio (RER), and (F) ambulatory activity of 12-16-week diet-induced obese male mice following a single treatment of CAP-GDF15 (50 mg/kg, intraperitoneal) or vehicle control. (G) Food intake, (H) RER, and (I) ambulatory activity of 12-16-week diet-induced obese male mice following a single treatment of scrambled CAP-GDF15 (50 mg/kg, intraperitoneal, scrambled sequence: pGlu-[…]-NH2) or vehicle control. (J) 3-day food intake and (K) body weight of 12-16-week diet-induced obese male mice following treatment with CAP-GDF15 or scrambled CAP-GDF15 (50 mg/kg/day, IP), or vehicle control. Data are shown as means #SEM. For (D-F), N=12/group; for (G-I), N=8/group; for (J,K), N=7/group. For (D-1), injection occurred at time T=0 (5:00 μm) and data was collected for the following 16 hrs. For (D-K), ** P<0.01, *** P<0.001 by two-way ANOVA.
Lastly, to determine whether the acute hypophagic effects of CAP-GDF15 would lead to long-term suppression of feeding and obesity, we administered CAP-GDF15 or scrambled CAP-GDF15 (50 mg/kg/day, IP), or vehicle control to diet-induced obese mice. Food intake and body weight were monitored over a three-day period. […] Importantly, mice treated with the scrambled CAP-GDF15 peptide were indistinguishable in body weight or food intake from control mice (FIGS. 5J-5K).
Mice and treatments. Animal experiments were performed according to a procedure approved by the Stanford University Administrative Panel on Laboratory Animal Care. Mice were maintained in 12-h light-dark cycles at 22° C. and about 50% relative humidity and fed a standard irradiated rodent diet. Where indicated, a high-fat diet (D12492, Research Diets 60% kcal from fat) was used. Male C57BL/6J (stock number 000664) and male C57BL/6J DIO mice were purchased from the Jackson Laboratory (stock number 380050). For studies in high fat diet-fed mice, peptides were dissolved in 18:1:1 (by volume) of saline: Kolliphor EL (Sigma Aldrich): DMSO and administered to mice by intraperitoneal injections at a volume of 10 μl/g at the indicated doses for the indicated times. For lipopolysaccharide injection, LPS was dissolved in saline and administered to mice at a volume of 5 μl/g at indicated dose. For fasting, food was removed from mice for 16 h. For running, a six-lane Columbus Instruments animal treadmill (product 1055-SRM-D65) was used with following 1 h protocol: 10 min at 6 m/min, 50 min at 18 m/min, and increase every 2 min by 2 m/min for the last 10 minutes, all at 12° incline. […]

diet-induced obese mice [5] = assay: Single dose in diet-induced obese mice, metabolic chambers (CAP-GDF15 experiments); type: in vivo, mouse; details: single dose 50 mg/kg intraperitoneally
Experimental: as §2
FIG. 6. Additional measurements from metabolic chambers of mice treated with CAP-GDF15. (A) VO2 and (B) VCO2 of 12-16-week diet-induced obese male mice following a single treatment of CAP-GDF15 (50 mg/kg, intraperitoneal) or vehicle control. (C) VO2 and (D) VCO2 of 12-16-week diet-induced obese male mice following a single treatment of scrambled CAP-GDF15 (50 mg/kg, intraperitoneal, scrambled sequence: p[…]-NH2) or vehicle control. Data are shown as means±SEM. For (A-B), N=12/group; for (C-D), N=8/group. For (A-D), injection occurred at time T=0 (5:00 μm) and data was collected for the subsequent 16 hrs.
To test this possibility, we administered a single dose of CAP-GDF15 (50 mg/kg, intraperitoneally) to diet-induced obese mice and measured whole body parameters of energy balance in metabolic chambers.
We next synthesized a control CAP-GDF15 peptide that preserved amino acid composition but scrambled the intervening amino acid sequence (scrambled CAP-GDF15, pGlu-[…]-NH2). […] We conclude that the hypophagic effects of CAP-GDF15 are specific to this amino acid sequence.
Mice and treatments. Animal experiments were performed according to a procedure approved by the Stanford University Administrative Panel on Laboratory Animal Care. Mice were maintained in 12-h light-dark cycles at 22° C. and about 50% relative humidity and fed a standard irradiated rodent diet. Where indicated, a high-fat diet (D12492, Research Diets 60% kcal from fat) was used. Male C57BL/6J (stock number 000664) and male C57BL/6J DIO mice were purchased from the Jackson Laboratory (stock number 380050). For studies in high fat diet-fed mice, peptides were dissolved in 18:1:1 (by volume) of saline: Kolliphor EL (Sigma Aldrich): DMSO and administered to mice by intraperitoneal injections at a volume of 10 μl/g at the indicated doses for the indicated times. For lipopolysaccharide injection, LPS was dissolved in saline and administered to mice at a volume of 5 μl/g at indicated dose. For fasting, food was removed from mice for 16 h. For running, a six-lane Columbus Instruments animal treadmill (product 1055-SRM-D65) was used with following 1 h protocol: 10 min at 6 m/min, 50 min at 18 m/min, and increase every 2 min by 2 m/min for the last 10 minutes, all at 12° incline. For all treatment experiments, mice were mock injected with the vehicle for 3-5 days until body weights were stabilized. Heparin plasm was harvested by submandibular bleed. For all experiments, mice were randomly assigned to treatment groups. Experimenters were not blinded to groups.
Metabolic chamber studies. For acute energy expenditure studies, food intake, RER, movement, VO2, and VCO2 were collected with CLAMS Oxymax Metabolic Cages. Mice were placed individual metabolic cages for 24 hours prior to experiment. […]

GH3 cells = assay: Growth hormone secretion from GH3 cells (ELISA of media); type: cell-based, rat; details: 10 μM
Experimental: FIG. 13. Functional screen in GH3 cells identifies CAP-WNT9A as a growth hormone secretagogue in vitro. (A) Z-score of media growth hormone concentration with 1 hour treatment of 10 μM of 100% conserved capped peptides growth hormone secretagogue activity in GH3 cells (N=1 for all peptides and N=3 for DMSO). (B) Media growth hormone concentration with 1 hour treatment of 10 μM CAP-WNT9A or DMSO (N=3/group). (Error bars are SEM.)
In a functional screen in GH3 cells, a rat pituitary cell line, various capped peptides are shown to activate growth hormone secretion (FIG. 13A).
In vitro studies. GH3 cells (rat pituitary cell line, ATCC cat. #CCL-82.1) were cultured in F-12K medium with 2.5% fetal bovine serum and 15% horse serum. GH3 cells were washed, resuspended in Krebs Ringer Hepes Buffer, diluted to 0.5 million cells/mL, and aliquoted into tubes (300 μL/sample). The GH3 cells were then starved for 60 minutes in Krebs Ringer Hepes Buffer. The capped peptides (N=1 in screen and N=3 in repeat with CAP-WNT9A) or DMSO (N=3) control were added at a 10 μM final concentration. GH3 cells were incubated for 1 hour. Cells were pelleted with 5 min centrifuge spin at 500×g at 4 C. Grown hormone was measured in the supernatant with an ELISA kit (Thermo Cat #KRC5311) according to product protocol. Z-score of growth hormone concentration is shown. […]

Molecule: CSCC[C@H](NC(=O)[C@H](CC(C)C)NC(=O)CNC(=O)[C@H](Cc1ccccc1)NC(=O)[C@H](Cc1ccccc1)NC(=O)[C@@H]1CCC(=O)N1)C(N)=O [CAP-TAC1, pGlu-FFGLM-NH2] (HELM PEPTIDE1{[Glp].F.F.G.L.M.[am]}$$$$V2.0)
- EC50 (human TACR1; read-out: ED50, agonism of TACR1): 0.7 nM
- Emax (human TACR1; read-out: maximal activation, % of maximal response): 96.6%
- oxygen consumption (VO2) (diet induced obese mice [1]): induces an increase in oxygen consumption
- peptide level in mouse plasma after 90 min [2]: still detectable
- half-life at 10 µM ([2]; mouse, plasma): 14.4 min
- food intake (diet induced obese mice [3]; versus vehicle): independent of any changes of food intake
- body weight change (diet induced obese mice [3]; versus vehicle and pair fed group): induces body weight loss

Molecule: pGlu-GLEALRARLRV-NH2 (HELM PEPTIDE1{[Glp].G.L.E.A.L.R.A.R.L.R.V.[am]}$$$$V2.0; SMILES CC(C)C[C@H](NC(=O)CNC(=O)[C@@H]1CCC(=O)N1)C(=O)N[C@@H](CCC(=O)O)C(=O)N[C@@H](C)C(=O)N[C@@H](CC(C)C)C(=O)N[C@@H](CCCNC(=N)N)C(=O)N[C@@H](C)C(=O)N[C@@H](CCCNC(=N)N)C(=O)N[C@@H](CC(C)C)C(=O)N[C@@H](CCCNC(=N)N)C(=O)N[C@H](C(N)=O)C(C)C) [scrambled CAP-GDF15, reference compound]
- body weight over three-day period (diet-induced obese mice [4]): indistinguishable
- food intake over three-day period (diet-induced obese mice [4]): indistinguishable
- respiratory exchange ratio (RER) (diet-induced obese mice [5]; 16 hrs after injection): completely ineffective
- food intake, effect in words (diet-induced obese mice [5]; identical experimental conditions): completely ineffective

Molecule: pGlu-LELRLRVAAGR-NH2 (HELM PEPTIDE1{[Glp].L.E.L.R.L.R.V.A.A.G.R.[am]}$$$$V2.0; SMILES CC(C)C[C@H](NC(=O)[C@@H]1CCC(=O)N1)C(=O)N[C@@H](CCC(=O)O)C(=O)N[C@@H](CC(C)C)C(=O)N[C@@H](CCCNC(=N)N)C(=O)N[C@@H](CC(C)C)C(=O)N[C@@H](CCCNC(=N)N)C(=O)N[C@H](C(=O)N[C@@H](C)C(=O)N[C@@H](C)C(=O)NCC(=O)N[C@@H](CCCNC(=N)N)C(N)=O)C(C)C) [CAP-GDF15, 12-mer capped peptide from amino acids 174-185 of mouse GDF15 prepropeptide region]
- body weight over three-day period (diet-induced obese mice [4]): increasing reduction in body weight
- food intake over three-day period (diet-induced obese mice [4]): durable suppression of food intake
- carbon dioxide production (VCO2) (diet-induced obese mice [5]): did not alter
- movement (ambulatory activity) (diet-induced obese mice [5]): did not alter
- oxygen consumption (VO2) (diet-induced obese mice [5]): did not alter
- respiratory exchange ratio (RER) (diet-induced obese mice [5]; 16 hrs after injection): suppression of respiratory exchange ratio (RER) was also observed
- suppression of food intake compared to vehicle-treated mice (diet-induced obese mice [5]; 16 hrs after injection): ~ 60%

Molecule: pGlu-WGGCGDNLKYSSKFVEFL-NH2 (HELM PEPTIDE1{[Glp].W.G.G.C.G.D.N.L.K.Y.S.S.K.F.V.E.F.L.[am]}$$$$V2.0; SMILES CC(C)C[C@H](NC(=O)[C@H](Cc1ccccc1)NC(=O)[C@H](CCC(=O)O)NC(=O)[C@@H](NC(=O)[C@H](Cc1ccccc1)NC(=O)[C@H](CCCCN)NC(=O)[C@H](CO)NC(=O)[C@H](CO)NC(=O)[C@H](Cc1ccc(O)cc1)NC(=O)[C@H](CCCCN)NC(=O)[C@H](CC(C)C)NC(=O)[C@H](CC(N)=O)NC(=O)[C@H](CC(=O)O)NC(=O)CNC(=O)[C@H](CS)NC(=O)CNC(=O)CNC(=O)[C@H](Cc1c[nH]c2ccccc12)NC(=O)[C@@H]1CCC(=O)N1)C(C)C)C(N)=O) [CAP-WNT9A, top hit of growth hormone secretagogue screen]
- growth hormone secretagogue activity in screen (Z-score of media growth hormone concentration) (GH3 cells; 1 hour treatment, N=1): highest growth hormone secretagogue activity
- growth hormone concentration in media versus DMSO (GH3 cells; one hour treatment, N=3): increased by four times
